What follows are molecules tested on Human leukemia cell strain HL-60 (assay: HL-60 differentiation induction (NBT reduction method)). Conditions: Am80 present at 3.3×10^−10 M; half of maximum differentiation inducing rate; read-out: Retinoid synergistic activity SEC50.
Type: cell-based
Protocol: Human leukemia cell strain HL-60 differentiates into granulocytes (neutrophils) to come to have an ability to express active oxygen. […] A method for measuring differentiation inducibility of cells into granulocytes by using this principle is referred to as NBT reduction method. So, the differentiation inducibility of the synthesized compound was measured by NBT reduction method. […] Each compound was dissolved in dimethylsulfoxide (DMSO) into 20 mM to prepare a stock solution. NBT was prepared into 0.2 w/v % by using PBS (−) 2 hours before use and incubated at 37° C. TPA was dissolved in ethanol (EtOH) into 2 mg/mL to prepare a stock solution. This TPA solution was prepared into 20 μg/mL by using PBS (−) at the time of use. […] The action of RXR agonist is enhanced by the combined use of that and RAR agonist. […] After four days cultivation, cells were collected by centrifugation (4° C., 1500 rpm, 5 minutes). After these cells were seeded onto 1 mL of a fresh growth medium, then 1 mL of 0.2 w/v % NBT solution and 20 μl of 20 μg/ml of TPA solution were added, and incubation was carried out in the incubator containing 5% CO2 at 37° C. for 30 minutes. Then, stained cell number and total cell number were counted on a cell counter. Meanwhile, the measurement was conducted three times by counting 200 cells or more at a time and a differentiation inducing rate was calculated from a mean value obtained by averaging them. […] Meanwhile, “inert” means that differentiation inducibility can not be observed even at 10 μM. Likewise, b) BA (bioactivity) (%) refers to the maximum differentiation inducing rate relative to the total cell number in this test.
CCN(c1ccc(OC(C)C)c(C(C)C)c1)c1ccc(C(=O)O)cn1 [Compound 4a] gave an EC50 of 23 nM. For CCCOc1cc(Nc2ccc(C(=O)O)cn2)ccc1C(C)C [Compound 2c], the EC50 was 4300 nM. CCCOc1cc(N(CC)c2ccc(C(=O)O)cn2)ccc1C(C)C [Compound 2a] gave an EC50 of 23 nM. Molecule CC(C)Oc1cc(N(c2ccc(C(=O)O)cn2)S(C)(=O)=O)ccc1C(C)C [Compound 1b] has an EC50 of 900 nM. Molecule CC(C)Oc1ccc(Nc2ccc(C(=O)O)cn2)cc1C(C)C [Compound 4c] has an EC50 greater than 10000 nM. In the case of CCN(c1ccc(C(C)C)c(OC(C)C)c1)c1ncc(C(=O)O)cn1 [Compound 6a], the EC50 is reported as 12 nM.

Same assay, conditions: Am80 present at 3.3×10^−10 M; maximum differentiation inducing rate relative to total cell number
In the case of CCN(c1ccc(OC(C)C)c(C(C)C)c1)c1ccc(C(=O)O)cn1 [Compound 4a], the “Retinoid synergistic activity BA(%)” value is reported as 64%. In the case of CCCOc1cc(Nc2ccc(C(=O)O)cn2)ccc1C(C)C [Compound 2c], the “Retinoid synergistic activity BA(%)” value is reported as 60%. For CCCOc1cc(N(CC)c2ccc(C(=O)O)cn2)ccc1C(C)C [Compound 2a], the “Retinoid synergistic activity BA(%)” value was 74%. In the case of CC(C)Oc1cc(N(c2ccc(C(=O)O)cn2)S(C)(=O)=O)ccc1C(C)C [Compound 1b], the “Retinoid synergistic activity BA(%)” value is reported as 63%. For CC(C)Oc1ccc(Nc2ccc(C(=O)O)cn2)cc1C(C)C [Compound 4c], the “Retinoid synergistic activity BA(%)” value was 29%. For CCN(c1ccc(C(C)C)c(OC(C)C)c1)c1ncc(C(=O)O)cn1 [Compound 6a], the “Retinoid synergistic activity BA(%)” value was 87%.

Same assay, conditions: Homo sapiens, HL-60, 96 h; test compound alone; concentration giving half of maximum differentiation inducing rate; four days culture; read-out: Retinoid activity EC50
With CCN(c1ccc(C(C)C)c(OC(C)C)c1)c1ncc(C(=O)O)cn1 [Compound 6a] the EC50 was greater than 10000 nM.

Same assay, conditions: test compound alone; concentration giving half of maximum differentiation inducing rate; four days culture; read-out: Retinoid activity EC50
CCN(c1ccc(OC(C)C)c(C(C)C)c1)c1ccc(C(=O)O)cn1 [Compound 4a] was tested, and the EC50 was greater than 10000 nM. CCCOc1cc(Nc2ccc(C(=O)O)cn2)ccc1C(C)C [Compound 2c] showed an EC50 greater than 10000 nM. Work on CCCOc1cc(N(CC)c2ccc(C(=O)O)cn2)ccc1C(C)C [Compound 2a] yielded an EC50 greater than 10000 nM. CC(C)Oc1cc(N(c2ccc(C(=O)O)cn2)S(C)(=O)=O)ccc1C(C)C [Compound 1b] showed an EC50 greater than 10000 nM. In the case of CC(C)Oc1ccc(Nc2ccc(C(=O)O)cn2)cc1C(C)C [Compound 4c], the EC50 is reported as greater than 10000 nM.

Same assay, conditions: test compound alone; maximum differentiation inducing rate relative to total cell number
CCCOc1cc(Nc2ccc(C(=O)O)cn2)ccc1C(C)C [Compound 2c] was tested, and the “Retinoid activity BA(%)” value was 50%. For CCCOc1cc(N(CC)c2ccc(C(=O)O)cn2)ccc1C(C)C [Compound 2a], the “Retinoid activity BA(%)” value was 4%. In the case of CC(C)Oc1cc(N(c2ccc(C(=O)O)cn2)S(C)(=O)=O)ccc1C(C)C [Compound 1b], the “Retinoid activity BA(%)” value is reported as 44%. For CC(C)Oc1ccc(Nc2ccc(C(=O)O)cn2)cc1C(C)C [Compound 4c], the “Retinoid activity BA(%)” value was 24%. In the case of CCN(c1ccc(C(C)C)c(OC(C)C)c1)c1ncc(C(=O)O)cn1 [Compound 6a], the “Retinoid activity BA(%)” value is reported as 3%.

The molecules below were run against T1, RXRα (Homo sapiens, UniProt P19793) (assay: RXR reporter gene assay (luciferase) in COS-1 cells, RXRα). Conditions: COS-1.
T1 construct: expressed in transfected cells; host or cells: COS-1 cells
T1 sequence (P19793 1-462): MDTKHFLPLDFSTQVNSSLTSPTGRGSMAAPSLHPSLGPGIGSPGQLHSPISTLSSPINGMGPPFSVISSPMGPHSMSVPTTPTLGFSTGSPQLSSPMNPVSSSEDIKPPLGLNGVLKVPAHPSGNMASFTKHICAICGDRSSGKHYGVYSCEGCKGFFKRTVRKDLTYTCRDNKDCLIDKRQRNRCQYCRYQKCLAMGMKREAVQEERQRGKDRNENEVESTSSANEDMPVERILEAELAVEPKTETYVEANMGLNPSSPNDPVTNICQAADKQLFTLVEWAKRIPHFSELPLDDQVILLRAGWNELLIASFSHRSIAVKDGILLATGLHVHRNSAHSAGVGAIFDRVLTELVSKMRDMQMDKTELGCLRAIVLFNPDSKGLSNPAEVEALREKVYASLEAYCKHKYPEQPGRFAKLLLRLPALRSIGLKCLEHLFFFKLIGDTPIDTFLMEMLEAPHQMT
Type: cell-based
Protocol: (§1) Most of nuclear receptors are transcription factors associated with regulating transcription, so that reporter gene assay is conducted as a means of measuring its transcription activity. An expression plasmid for RXR receptor protein and a reporter plasmid were introduced into cells such as COS-1 cells and HeLa cells to cause overexpression. And, when RXR agonist is bound to the receptor, transcription is induced in a ligand dependent manner, and a protein which is referred to as fusion protein downstream is produced. The binding of this fusion protein to the binding site on the reporter plasmid initiates the transcription to produce luciferase downstream. RXR agonistic activity was measured by measuring this luciferase activity.
(§2) Dulbecco's Modified Eagle MEM medium (DMEM) was used as growth medium.
(§3) Passage was conducted by removing culture supernatant from the cell culture grown in a 100 mm culture dish, collecting cells by trypsinization, centrifuging at 1000 rpm at 4° C. for 3 minutes, then dispersing cells by adding growth medium and growing them in a 100 mm culture dish (15 mL of growth medium) at 37° C. in the presence of 5% CO2.
(§4) Transformation was conducted using Effectene™ Transfection Reagent (QIAGEN). Further, Luciferase Assay System was used for evaluating luciferase activity. Am80 was used for the positive control of RAR, and 9-cis retinoic acid was used for the positive control of RXR. They were dissolved in DMSO for use as a stock solution and measured on every plate to be assayed.
(§5) • On day 1: COS-1 cells were seeded along with 15 mL of growth medium in a 60 mm culture dish at 50×10^4 cells and were cultured over night. • On day 2: Transformation was conducted by lipofection using Effectene™ Transfection Reagent. • On day 3: 16 to 18 hours later, the culture supernatant was removed, cells were collected by trypsinization, centrifugation was conducted at 1000 rpm at 4° C. for 3 minutes, then cells were dispersed by adding growth medium, and then the cells were seeded on a 96-well white plate at 2.0×10^4 cells/well. Then, each compound was added at DMSO concentration of 1% or below. • On day 4: 24 hours later, 25 μL of the supernatant was used for SEAP measurement, and the rest cell-containing solution was used for measuring luciferase activity.
(§6) In Table 5, a) EC50 indicated a concentration giving the half of the maximum transcriptional activation potential.
For CCN(c1ccc(C(C)C)c(OC(C)C)c1)c1ncc(C(=O)O)cn1 [Compound 6a], the Emax was 110%.

Same assay, conditions: COS-1 cells; half of maximum transcriptional activation potential
CCN(c1ccc(OC(C)C)c(C(C)C)c1)c1ccc(C(=O)O)cn1 [Compound 4a] showed an EC50 greater than 660 nM. With CCN(c1ccc(C(C)C)c(OC(C)C)c1)c1ncc(C(=O)O)cn1 [Compound 6a] the EC50 was 6 nM.

Same assay, conditions: COS-1 cells; relative to PA024 (1 μM) = 100%
In the case of CCN(c1ccc(OC(C)C)c(C(C)C)c1)c1ccc(C(=O)O)cn1 [Compound 4a], the “RXRα Emax (%)” value is reported as greater than 110%.

What follows are molecules tested against T2, RXRβ (Homo sapiens, UniProt P28702) (assay: RXR reporter gene assay (luciferase) in COS-1 cells, RXRβ). Conditions: COS-1.
T2 construct: expressed in transfected cells; host or cells: COS-1 cells
T2 sequence (P28702 1-533): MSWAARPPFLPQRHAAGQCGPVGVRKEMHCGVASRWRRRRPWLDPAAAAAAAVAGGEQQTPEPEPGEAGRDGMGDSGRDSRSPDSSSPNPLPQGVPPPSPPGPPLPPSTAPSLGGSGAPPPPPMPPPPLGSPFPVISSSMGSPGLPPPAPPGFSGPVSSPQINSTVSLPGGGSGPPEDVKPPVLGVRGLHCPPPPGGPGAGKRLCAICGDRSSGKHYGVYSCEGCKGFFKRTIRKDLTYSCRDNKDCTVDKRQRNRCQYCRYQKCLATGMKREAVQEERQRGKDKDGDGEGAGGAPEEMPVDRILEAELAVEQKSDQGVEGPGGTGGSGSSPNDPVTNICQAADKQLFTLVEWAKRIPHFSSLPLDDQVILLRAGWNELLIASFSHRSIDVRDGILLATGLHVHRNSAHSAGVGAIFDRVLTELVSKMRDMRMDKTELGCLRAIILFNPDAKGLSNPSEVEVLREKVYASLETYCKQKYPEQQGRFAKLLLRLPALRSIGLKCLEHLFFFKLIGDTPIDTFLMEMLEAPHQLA
Type: cell-based
Protocol: as §1, §2, §3, §4, §5, §6
Molecule CCN(c1ccc(C(C)C)c(OC(C)C)c1)c1ncc(C(=O)O)cn1 [Compound 6a] has an Emax of 100%.

Same assay, conditions: COS-1 cells; half of maximum transcriptional activation potential
Work on CCN(c1ccc(OC(C)C)c(C(C)C)c1)c1ccc(C(=O)O)cn1 [Compound 4a] yielded an EC50 greater than 1300 nM. CCN(c1ccc(C(C)C)c(OC(C)C)c1)c1ncc(C(=O)O)cn1 [Compound 6a] showed an EC50 of 18 nM.

Same assay, conditions: COS-1 cells; relative to PA024 (1 μM) = 100%
CCN(c1ccc(OC(C)C)c(C(C)C)c1)c1ccc(C(=O)O)cn1 [Compound 4a] was tested, and the “RXRβ Emax (%)” value was greater than 80%.

The molecules below were run against T3, RXRγ (Homo sapiens, UniProt P48443) (assay: RXR reporter gene assay (luciferase) in COS-1 cells, RXRγ). Conditions: COS-1.
T3 construct: expressed in transfected cells; host or cells: COS-1 cells
T3 sequence (P48443 1-463): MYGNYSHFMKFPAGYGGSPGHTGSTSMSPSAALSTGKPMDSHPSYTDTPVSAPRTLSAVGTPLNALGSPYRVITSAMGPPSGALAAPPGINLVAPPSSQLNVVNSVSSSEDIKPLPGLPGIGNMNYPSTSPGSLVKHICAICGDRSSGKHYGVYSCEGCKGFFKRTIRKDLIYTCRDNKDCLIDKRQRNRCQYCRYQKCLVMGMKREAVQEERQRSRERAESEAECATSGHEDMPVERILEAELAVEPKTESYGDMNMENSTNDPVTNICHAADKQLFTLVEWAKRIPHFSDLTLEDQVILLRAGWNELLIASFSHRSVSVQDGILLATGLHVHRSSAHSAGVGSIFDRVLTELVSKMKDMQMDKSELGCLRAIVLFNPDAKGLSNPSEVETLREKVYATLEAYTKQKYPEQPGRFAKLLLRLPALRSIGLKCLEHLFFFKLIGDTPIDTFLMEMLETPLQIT
Type: cell-based
Protocol: as §1, §2, §3, §4, §5, §6
In the case of CCN(c1ccc(C(C)C)c(OC(C)C)c1)c1ncc(C(=O)O)cn1 [Compound 6a], the Emax is reported as 105%.

Same assay, conditions: COS-1 cells; half of maximum transcriptional activation potential
Molecule CCN(c1ccc(OC(C)C)c(C(C)C)c1)c1ccc(C(=O)O)cn1 [Compound 4a] has an EC50 greater than 350 nM. For CCN(c1ccc(C(C)C)c(OC(C)C)c1)c1ncc(C(=O)O)cn1 [Compound 6a], the EC50 was greater than 58 nM.

Same assay, conditions: COS-1 cells; relative to PA024 (1 μM) = 100%
For CCN(c1ccc(OC(C)C)c(C(C)C)c1)c1ccc(C(=O)O)cn1 [Compound 4a], the “RXRγ Emax (%)” value was greater than 81%.

Reference: patent US8389538B2, “Rexinoid compound having alkoxy group” (National University Corporation Okayama University, priority 2007, dated 2013)
